PubChem BioAssay (NCI)
Where “and” joins values, the source holds several entries; their conditions need not be identical. Equal values may be shown once.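 Each compound was tested at five concentrations against cells in 96-well plates for 48 hours. At the GI50, growth is halved. The concentration for full growth arrest is given as TGI.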

Key:
Assay in all cases: inhibition of tumour cell growth, NCI panel, 48 h
SK-MEL-5 melanoma = tested on: SK-MEL-5 melanoma
HT29 colon = tested on: HT29 colon
OVCAR-8 ovarian = tested on: OVCAR-8 ovarian
HOP-92 NSCLC = tested on: HOP-92 NSCLC
SR leukemia = tested on: SR leukemia
RPMI-8226 leukemia = tested on: RPMI-8226 leukemia
SNB-75 CNS = tested on: SNB-75 CNS
TK-10 renal = tested on: TK-10 renal
KM12 colon = tested on: KM12 colon
786-0 renal = tested on: 786-0 renal

Row | Structure (SMILES) | GI50 (SK-MEL-5 melanoma) | TGI (SK-MEL-5 melanoma) | GI50 (HT29 colon) | TGI (HT29 colon) | GI50 (OVCAR-8 ovarian) | TGI (OVCAR-8 ovarian) | GI50 (HOP-92 NSCLC) | TGI (HOP-92 NSCLC) | GI50 (SR leukemia) | TGI (SR leukemia) | GI50 (RPMI-8226 leukemia) | TGI (RPMI-8226 leukemia) | GI50 (SNB-75 CNS) | TGI (SNB-75 CNS) | GI50 (TK-10 renal) | TGI (TK-10 renal) | GI50 (KM12 colon) | TGI (KM12 colon) | GI50 (786-0 renal) | TGI (786-0 renal)
1 | COc1cc(OC)c2cc(C(=O)O)c(=O)oc2c1 | > 100 µM | > 100 µM | > 100 µM | > 100 µM | > 100 µM | > 100 µM | > 100 µM | > 100 µM | > 100 µM | > 100 µM | 6.1 µM | > 36.2 µM | > 100 µM | > 100 µM | > 74.5 µM | > 100 µM | > 100 µM | > 100 µM | > 95.4 µM | > 100 µM
2 | CS(=O)(=O)Nc1cccc(-c2ccc3c(NC(=O)C4CC4)n[nH]c3c2)c1 | 0.641 µM | > 13 µM | 3.88 µM | > 25 µM | 6.26 µM | > 25 µM |  | > 25 µM | 0.355 µM | > 25 µM | 10.8 µM | > 25 µM | 4.6 µM | > 25 µM | 24.6 µM | > 25 µM | 1.39 µM | > 25 µM | 12.2 µM | > 25 µM
3 | CC(C)=CCc1ccc(O)c(=O)cc1C(C)C | 0.582 µM | 4.08 µM | 1.51 µM | > 100 µM | 0.413 µM | > 100 µM | 1.32 µM | 65.3 µM | 0.465 µM | > 100 µM | 0.673 µM | > 91.3 µM | 2.88 µM | > 100 µM | 0.746 µM | > 100 µM | 0.641 µM | > 100 µM | 0.816 µM | 5.4 µM
4 | N#Cc1c(-c2ccc(Cl)cc2)c(-c2ccc(Cl)cc2)nn(CCOC(=O)CCC(=O)O)c1=O |  | 2.59 µM |  | 6.39 µM |  | > 78.4 µM |  | 15.2 µM |  | 25.6 µM |  | > 60 µM |  | > 75.7 µM |  | > 100 µM |  | 71.2 µM |  | 55.3 µM
5 | COc1cc2c(cc1OCCCCCn1c(-c3ccco3)nc3ccccc31)N=C[C@@H]1CCCN1C2=O | < 0.01 µM | < 0.01 µM | < 0.01 µM | > 100 µM | < 0.01 µM | > 36.8 µM | < 0.0122 µM |  | < 0.01 µM | < 0.01 µM | < 0.01 µM | < 0.0309 µM | < 0.01 µM | 0.0334 µM | 0.0267 µM | 35.6 µM | < 0.01 µM |  | < 0.01 µM | 1.3 µM
6 | Cc1cc(NCCCCNc2ccnc3cc(Cl)ccc23)nc(Nc2ccc(C(=O)N3CCCC3)cc2)n1 | 1.7 µM | 3.13 µM | 2.37 µM | 7.8 µM | 3.14 µM | 11.2 µM | 1.58 µM | 3.7 µM | 0.267 µM | 1.37 µM | 1.34 µM | 5.3 µM | 1.91 µM | 3.76 µM | 1.84 µM | 4.25 µM | 3 µM | 11.3 µM | 1.57 µM | 3.02 µM
7 | O=C1c2cccc3cccc(c23)C(=O)N1CCCCN1CCN(CCCCOc2ccc(-c3nc4ccc(N5CCOCC5)cc4[nH]3)cc2)CC1 | 9.1 µM | > 100 µM | > 100 µM | > 100 µM | 8.8 µM | > 100 µM | > 100 µM | > 100 µM | 1.68 µM | 3.9 µM | > 100 µM | > 100 µM | > 100 µM | > 100 µM | > 100 µM | > 100 µM | > 100 µM | > 100 µM | > 100 µM | > 100 µM
8 | O=C1Nc2ccccc2/C1=C/c1ccccc1 |  | 26.1 µM |  | 48 µM |  | 66.1 µM |  | 25.5 µM |  | 48.1 µM |  | 77.7 µM |  | 33.8 µM |  | 45.1 µM |  | 33.2 µM |  | 28.4 µM
9 | Cc1ccc(NC(=O)COC(=O)c2cccc3c(=O)c4ccccc4[nH]c23)cc1 |  | > 100 µM |  | > 100 µM |  | > 100 µM |  | > 100 µM |  | 65.1 µM |  | > 100 µM |  | 94.9 µM |  | > 100 µM |  | > 100 µM |  | > 100 µM
10 | COc1ccc2cc3[n+](cc2c1OC)CCc1cc2c(cc1-3)OCO2 | 1.26 µM |  | 23.7 µM | > 100 µM and > 92.7 µM and 87.6 µM | 3.69 µM |  | 8.54 µM |  |  | > 100 µM and 71.5 µM and > 75.6 µM |  | > 100 µM | 21.4 µM |  |  | > 100 µM | 2.79 µM and 4.27 µM |  | 72.7 µM | > 100 µM
11 | O=c1oc2ccc(F)cc2c(=O)n1-c1ccc(Cl)cc1F | 0.29 µM | 0.89 µM | 3.29 µM | > 34.2 µM | 2.05 µM | 26.2 µM | 0.205 µM | 0.613 µM | 0.619 µM | > 39.1 µM | 0.356 µM | 1.9 µM | 0.375 µM | 2.65 µM | 3.73 µM | 12.2 µM | 2.11 µM | 5.84 µM | 2.8 µM | 8.85 µM
